Assay: xn = mol fraction of the nth substance listed

CC12CC3CC(C)(C1)CC(C)(C3)C2 + CCCCCCCCCCC
viscosity [mPa·s], 100 kPa
Settings	x1 = 0.1004	x1 = 0.1998	x1 = 0.3004	x1 = 0.4006	x1 = 0.4992	x1 = 0.6045	x1 = 0.7008	x1 = 0.8138	x1 = 0.9014
293.15 K	1.267	1.341	1.419	1.514	1.628	1.772	1.935	2.161	2.369
298.15 K	1.16	1.227	1.294	1.374	1.47	1.595	1.737	1.939	2.134
303.15 K	1.071	1.121	1.187	1.264	1.351	1.463	1.589	1.762	1.926
308.15 K	0.987	1.038	1.095	1.165	1.246	1.348	1.46	1.612	1.76
313.15 K	0.92	0.965	1.019	1.083	1.152	1.241	1.34	1.475	1.605
318.15 K	0.86	0.9	0.948	1.006	1.073	1.155	1.245	1.369	1.48
323.15 K	0.802	0.843	0.889	0.943	1.001	1.073	1.153	1.261	1.362

COCC(C)O (configuration not stated) + CS(C)=O
viscosity [mPa·s], 101 kPa
Settings	298.15 K	303.15 K	308.15 K	313.15 K	318.15 K
x1 = 0.0436	1.79	1.54	1.47	1.39	1.31
x1 = 0.0879	1.79	1.54	1.47	1.38	1.3
x1 = 0.1327	1.78	1.53	1.46	1.38	1.3
x1 = 0.1781	1.78	1.53	1.46	1.37	1.29
x1 = 0.2242	1.78	1.53	1.46	1.37	1.29
x1 = 0.2709	1.77	1.53	1.45	1.36	1.29
x1 = 0.3183	1.77	1.52	1.45	1.36	1.28
x1 = 0.3663	1.77	1.52	1.45	1.35	1.28
x1 = 0.415	1.76	1.52	1.44	1.35	1.28
x1 = 0.4644	1.75	1.51	1.43	1.34	1.27
x1 = 0.5145	1.75	1.51	1.43	1.34	1.26
x1 = 0.5653	1.75	1.5	1.42	1.33	1.25
x1 = 0.6169	1.73	1.49	1.41	1.31	1.24
x1 = 0.6692	1.72	1.47	1.39	1.29	1.22
x1 = 0.7224	1.7	1.45	1.37	1.27	1.2
x1 = 0.7762	1.67	1.42	1.34	1.24	1.17
x1 = 0.8864	1.62	1.36	1.28	1.18	1.11

O=[N+]([O-])c1ccccc1 + OCCOCCOCCO
viscosity [mPa·s], 101 kPa
Settings	298.15 K	308.15 K
x2 = 0.0465	2.086	1.759
x2 = 0.1495	2.91	2.342
x2 = 0.2501	3.999	3.087
x2 = 0.3505	5.455	4.049
x2 = 0.4432	7.222	5.184
x2 = 0.4957	8.443	5.954
x2 = 0.5486	9.864	6.838
x2 = 0.6486	13.17	8.857
x2 = 0.7501	17.53	11.47
x2 = 0.8489	23	14.69
x2 = 0.94	29.37	18.4

ClC(Cl)=C(Cl)Cl + CCC(C)O
viscosity [mPa·s]
Settings	x1 = 0.1024	x1 = 0.213	x1 = 0.3172	x1 = 0.4016	x1 = 0.5142	x1 = 0.6125	x1 = 0.7018	x1 = 0.7817	x1 = 0.8032	x1 = 0.9108
298.15 K, 101.3 kPa	–	–	–	–	–	–	–	1.005	–	–
303.15 K, 101.33 kPa	1.918	1.508	1.263	1.127	1.005	0.93	0.884	–	0.852	0.822

O=[N+]([O-])c1ccccc1 + O=C1CCCCC1
Settings	viscosity [mPa·s]
298.15 K, 101.3 kPa, x2 = 0.1946	1.785

c1ccccc1 + CCCCCC
Settings	viscosity [mPa·s]
293.15 K, 101.33 kPa, x1 = 0.1713	0.327
293.15 K, 101.33 kPa, x1 = 0.3148	0.345
293.15 K, 101.33 kPa, x1 = 0.4632	0.371
293.15 K, 101.33 kPa, x1 = 0.5799	0.406
293.15 K, 101.33 kPa, x1 = 0.7266	0.454
293.15 K, 101.33 kPa, x1 = 0.8082	0.494
293.15 K, 101.33 kPa, x1 = 0.9173	0.57
298 K, 101.33 kPa, x1 = 0.1026	0.3104
298 K, 101.33 kPa, x1 = 0.2013	0.3191
298 K, 101.33 kPa, x1 = 0.2817	0.3276
298 K, 101.33 kPa, x1 = 0.4385	0.3516
298 K, 101.33 kPa, x1 = 0.5967	0.3871
298 K, 101.33 kPa, x1 = 0.7149	0.4256
298 K, 101.33 kPa, x1 = 0.794	0.46
298 K, 101.33 kPa, x1 = 0.8993	0.5212
298.1 K, 101 kPa, x2 = 0.2	0.469
298.1 K, 101 kPa, x2 = 0.4	0.4
298.1 K, 101 kPa, x2 = 0.5	0.377
298.1 K, 101 kPa, x2 = 0.6	0.359
298.1 K, 101 kPa, x2 = 0.8	0.334
298.15 K, 101 kPa, x2 = 0.07	0.556
298.15 K, 101 kPa, x2 = 0.182	0.5
298.15 K, 101 kPa, x2 = 0.265	0.489
298.15 K, 101 kPa, x2 = 0.405	0.429
298.15 K, 101 kPa, x2 = 0.563	0.4
298.15 K, 101.33 kPa, x1 = 0.0651	0.2983
298.15 K, 101.33 kPa, x1 = 0.1218	0.3034
298.15 K, 101.33 kPa, x1 = 0.1281	0.3134
298.15 K, 101.33 kPa, x1 = 0.2665	0.327
298.15 K, 101.33 kPa, x1 = 0.2763	0.3184
298.15 K, 101.33 kPa, x1 = 0.405	0.3471
298.15 K, 101.33 kPa, x1 = 0.4144	0.339
298.15 K, 101.33 kPa, x1 = 0.5704	0.3822
298.15 K, 101.33 kPa, x1 = 0.5822	0.3759
298.15 K, 101.33 kPa, x1 = 0.7092	0.4165
298.15 K, 101.33 kPa, x1 = 0.7216	0.4254
298.15 K, 101.33 kPa, x1 = 0.821	0.4673
298.15 K, 101.33 kPa, x1 = 0.8811	0.5139
298.15 K, 101.33 kPa, x1 = 0.9055	0.5208
298.15 K, 101.33 kPa, x2 = 0.0488	0.55
298.15 K, 101.33 kPa, x2 = 0.05393	0.5662
298.15 K, 101.33 kPa, x2 = 0.1122	0.5225
298.15 K, 101.33 kPa, x2 = 0.1676	0.466
298.15 K, 101.33 kPa, x2 = 0.2079	0.472
298.15 K, 101.33 kPa, x2 = 0.2486	0.434
298.15 K, 101.33 kPa, x2 = 0.3095	0.4294
298.15 K, 101.33 kPa, x2 = 0.3321	0.397
298.15 K, 101.33 kPa, x2 = 0.3638	0.386
298.15 K, 101.33 kPa, x2 = 0.4168	0.373
298.15 K, 101.33 kPa, x2 = 0.4197	0.3921
298.15 K, 101.33 kPa, x2 = 0.4682	0.358
298.15 K, 101.33 kPa, x2 = 0.5004	0.3712
298.15 K, 101.33 kPa, x2 = 0.5206	0.347
298.15 K, 101.33 kPa, x2 = 0.5934	0.3533
298.15 K, 101.33 kPa, x2 = 0.626	0.328
298.15 K, 101.33 kPa, x2 = 0.6857	0.3394
298.15 K, 101.33 kPa, x2 = 0.7434	0.312
298.15 K, 101.33 kPa, x2 = 0.7913	0.3268
298.15 K, 101.33 kPa, x2 = 0.8753	0.299
298.15 K, 101.33 kPa, x2 = 0.8834	0.3202
298.15 K, 101.33 kPa, x2 = 0.9498	0.294
308.15 K, 101 kPa, x2 = 0.07	0.486
308.15 K, 101 kPa, x2 = 0.182	0.441
308.15 K, 101 kPa, x2 = 0.265	0.415
308.15 K, 101 kPa, x2 = 0.405	0.384
308.15 K, 101 kPa, x2 = 0.563	0.361
323.15 K, 101 kPa, x2 = 0.07	0.407
323.15 K, 101 kPa, x2 = 0.182	0.374
323.15 K, 101 kPa, x2 = 0.265	0.356
323.15 K, 101 kPa, x2 = 0.405	0.334
323.15 K, 101 kPa, x2 = 0.563	0.32
